Read-outs that look alike come from different tables or passages of the source.
Tested on: K. pneumoniae NVT1001 strains with ESBL or AmpC β-lactamase plasmids
Assay: Etest MIC of β-lactams, OmpK35/36 loss, ΔramR and/or extended-spectrum β-lactamase and AmpC β-lactamase (Table 8)
Type: cell-based, Klebsiella pneumoniae
Settings: Klebsiella pneumoniae
Procedure: DNA fragments of the resistance genes along with their flanking regions were amplified from clinical plasmids via PCR with specific primer pairs. The resulting PCR fragments were digested and then cloned into the plasmid pACYC177 or pACYC184. The resulting plasmids were then transformed into K. pneumoniae strain NVT1001 via electroporation. The recombinant bacteria were plated onto LB agar plates containing kanamycin (50 mg/L) or chloramphenicol (50 mg/L), and the presence of the cloned gene was confirmed via PCR and DNA sequencing.
The MICs of antibiotics were determined using the Etest (Biodisk AB, Sweden) according to the manufacturer's instructions. The MICs from the Etest, which fall between standard two-fold dilutions, were rounded up to the next highest two-fold value. The MICs of ceftazidime and cefotaxime against K. pneumoniae NVT1001 harbouring the pACYC177 plasmid with blaOXA-48 were further determined using a broth microdilution test according to the recommendations of the CLSI,^25 and the results were interpreted according to the breakpoints established by the CLSI in 2017.^25 Meanwhile, due to the lack of CLSI breakpoints in 2016 and 2017, the results for cephalothin were interpreted according to the breakpoints established by the CLSI in 2015,^26 and the results for moxifloxacin were interpreted according to the breakpoints established by the EUCAST in 2017.^27

[1] = CMY-2 on pACYC177, WT (NVT1001), read-out: MIC
[2] = CMY-2 on pACYC177, Δ35 (ΔompK35 mutant)
[3] = CMY-2 on pACYC177, Δ35/36 (ΔompK35/36 mutant)
[4] = CMY-2 on pACYC177, Δ36 (ΔompK36 mutant)
[5] = CMY-2 on pACYC177, ΔramR mutant
[6] = CMY-2 on pACYC177, ΔramRΔ35 (ΔramRΔompK35 mutant)
[7] = CMY-2 on pACYC177, ΔramRΔ35/36 (ΔramRΔompK35/36 mutant)
[8] = CMY-2 on pACYC177, ΔramRΔ36 (ΔramRΔompK36 mutant)
[9] = CTX-M-14 on pACYC177, WT (NVT1001), read-out: MIC
[10] = CTX-M-14 on pACYC177, Δ35 (ΔompK35 mutant)
[11] = CTX-M-14 on pACYC177, Δ35/36 (ΔompK35/36 mutant)
[12] = CTX-M-14 on pACYC177, Δ36 (ΔompK36 mutant)
[13] = CTX-M-14 on pACYC177, ΔramR mutant
[14] = CTX-M-14 on pACYC177, ΔramRΔ35 (ΔramRΔompK35 mutant)
[15] = CTX-M-14 on pACYC177, ΔramRΔ35/36 (ΔramRΔompK35/36 mutant)
[16] = CTX-M-14 on pACYC177, ΔramRΔ36 (ΔramRΔompK36 mutant)
[17] = CTX-M-15 on pACYC177, WT (NVT1001), read-out: MIC
[18] = CTX-M-15 on pACYC177, Δ35 (ΔompK35 mutant)
[19] = CTX-M-15 on pACYC177, Δ35/36 (ΔompK35/36 mutant)
[20] = CTX-M-15 on pACYC177, Δ36 (ΔompK36 mutant)
[21] = CTX-M-15 on pACYC177, ΔramR mutant
[22] = CTX-M-15 on pACYC177, ΔramRΔ35 (ΔramRΔompK35 mutant)
[23] = CTX-M-15 on pACYC177, ΔramRΔ35/36 (ΔramRΔompK35/36 mutant)
[24] = CTX-M-15 on pACYC177, ΔramRΔ36 (ΔramRΔompK36 mutant)
[25] = DHA-1-AmpR on pACYC177, WT (NVT1001), read-out: MIC
[26] = DHA-1-AmpR on pACYC177, Δ35 (ΔompK35 mutant)
[27] = DHA-1-AmpR on pACYC177, Δ35/36 (ΔompK35/36 mutant)
[28] = DHA-1-AmpR on pACYC177, Δ36 (ΔompK36 mutant)
[29] = DHA-1-AmpR on pACYC177, ΔramR mutant
[30] = DHA-1-AmpR on pACYC177, ΔramRΔ35 (ΔramRΔompK35 mutant)
[31] = DHA-1-AmpR on pACYC177, ΔramRΔ35/36 (ΔramRΔompK35/36 mutant)
[32] = DHA-1-AmpR on pACYC177, ΔramRΔ36 (ΔramRΔompK36 mutant)
[33] = SHV-12 on pACYC177, WT (NVT1001), read-out: MIC
[34] = SHV-12 on pACYC177, Δ35 (ΔompK35 mutant)
[35] = SHV-12 on pACYC177, Δ35/36 (ΔompK35/36 mutant)
[36] = SHV-12 on pACYC177, Δ36 (ΔompK36 mutant)
[37] = SHV-12 on pACYC177, ΔramR mutant
[38] = SHV-12 on pACYC177, ΔramRΔ35 (ΔramRΔompK35 mutant)
[39] = SHV-12 on pACYC177, ΔramRΔ35/36 (ΔramRΔompK35/36 mutant)
[40] = SHV-12 on pACYC177, ΔramRΔ36 (ΔramRΔompK36 mutant)
[41] = no supplemental plasmid, WT (NVT1001), read-out: MIC
[42] = no supplemental plasmid, Δ35 (ΔompK35 mutant)
[43] = no supplemental plasmid, Δ35/36 (ΔompK35/36 mutant)
[44] = no supplemental plasmid, Δ36 (ΔompK36 mutant)
[45] = no supplemental plasmid, ΔramR mutant
[46] = no supplemental plasmid, ΔramRΔ35 (ΔramRΔompK35 mutant)
[47] = no supplemental plasmid, ΔramRΔ35/36 (ΔramRΔompK35/36 mutant)
[48] = no supplemental plasmid, ΔramRΔ36 (ΔramRΔompK36 mutant)

In the case of `C[C@@H](O)[C@H]1C(=O)N2C(C(=O)O)=C(S[C@@H]3CN[C@H](C(=O)N(C)C)C3)[C@H](C)[C@H]12` [Meropenem], the MIC [1] is reported as 0.25 µg/mL, the MIC [2] is reported as 0.25 µg/mL and the MIC [3] is reported as 16 µg/mL. It also gave an MIC [4] of 2 µg/mL, an MIC [5] of 0.25 µg/mL and an MIC [6] of 0.25 µg/mL. For the same molecule, the MIC [7] was 8 µg/mL, the MIC [8] was 8 µg/mL and the MIC [9] was 0.06 µg/mL. It also gave an MIC [10] of 0.125 µg/mL, an MIC [11] of 2 µg/mL and an MIC [12] of 0.125 µg/mL. It also gave an MIC [13] of 0.125 µg/mL, an MIC [14] of 0.125 µg/mL and an MIC [15] of 2 µg/mL. It also gave an MIC [16] of 2 µg/mL, an MIC [17] of 0.25 µg/mL and an MIC [18] of 0.25 µg/mL. It also gave an MIC [19] of 8 µg/mL, an MIC [20] of 0.25 µg/mL and an MIC [21] of 0.25 µg/mL. The MIC [22] was 0.25 µg/mL, the MIC [23] was 4 µg/mL and the MIC [24] was 4 µg/mL. It also gave an MIC [25] of 0.25 µg/mL, an MIC [26] of 0.25 µg/mL and an MIC [27] of 8 µg/mL. The MIC [28] was 0.25 µg/mL, the MIC [29] was 0.125 µg/mL and the MIC [30] was 0.25 µg/mL. For the same molecule, the MIC [31] was 4 µg/mL, the MIC [32] was 8 µg/mL and the MIC [33] was 0.125 µg/mL. It also gave an MIC [34] of 0.125 µg/mL, an MIC [35] of 1 µg/mL and an MIC [36] of 0.125 µg/mL. It also gave an MIC [37] of 0.06 µg/mL, an MIC [38] of 0.06 µg/mL and an MIC [39] of 2 µg/mL. For the same molecule, the MIC [40] was 1 µg/mL, the MIC [41] was 0.06 µg/mL and the MIC [42] was 0.06 µg/mL. The MIC [43] was 0.5 µg/mL, the MIC [44] was 0.06 µg/mL and the MIC [45] was 0.06 µg/mL. For the same molecule, the MIC [46] was 0.06 µg/mL, the MIC [47] was 2 µg/mL and the MIC [48] was 2 µg/mL.

With `CCO/N=C(\C(=O)N[C@@H]1C(=O)N2C(C(=O)[O-])=C(Sc3nc(-c4cc[n+](C)cc4)cs3)CS[C@H]12)c1nsc(N)n1` [Ceftaroline] the MIC [1] was 64 µg/mL, the MIC [2] was 64 µg/mL and the MIC [3] was greater than 256 µg/mL. It also gave an MIC [4] of 256 µg/mL, an MIC [5] of 64 µg/mL and an MIC [6] of 64 µg/mL. The MIC [7] was 128 µg/mL, the MIC [8] was 256 µg/mL and the MIC [9] was 128 µg/mL. The MIC [10] was greater than 256 µg/mL, the MIC [11] was greater than 256 µg/mL and the MIC [12] was greater than 256 µg/mL. The MIC [13] was greater than 256 µg/mL, the MIC [14] was greater than 256 µg/mL and the MIC [15] was greater than 256 µg/mL. The MIC [16] was greater than 256 µg/mL, the MIC [17] was greater than 256 µg/mL and the MIC [18] was greater than 256 µg/mL. It also gave an MIC [19] greater than 256 µg/mL, an MIC [20] greater than 256 µg/mL and an MIC [21] greater than 256 µg/mL. It also gave an MIC [22] greater than 256 µg/mL, an MIC [23] greater than 256 µg/mL and an MIC [24] greater than 256 µg/mL. The MIC [25] was 8 µg/mL, the MIC [26] was 8 µg/mL and the MIC [27] was 16 µg/mL. For the same molecule, the MIC [28] was 8 µg/mL, the MIC [29] was 8 µg/mL and the MIC [30] was 8 µg/mL. For the same molecule, the MIC [31] was 16 µg/mL, the MIC [32] was 16 µg/mL and the MIC [33] was 16 µg/mL. The MIC [34] was 16 µg/mL, the MIC [35] was 64 µg/mL and the MIC [36] was 16 µg/mL. For the same molecule, the MIC [37] was 16 µg/mL, the MIC [38] was 16 µg/mL and the MIC [39] was 32 µg/mL. For the same molecule, the MIC [40] was 32 µg/mL, the MIC [41] was 0.25 µg/mL and the MIC [42] was 0.25 µg/mL. For the same molecule, the MIC [43] was 1 µg/mL, the MIC [44] was 0.5 µg/mL and the MIC [45] was 1 µg/mL. It also gave an MIC [46] of 1 µg/mL, an MIC [47] of 4 µg/mL and an MIC [48] of 4 µg/mL.

From patent US10760110B2, “Antibiotic testing and screening system” (priority 2017, dated 2020)
